Read-outs that look alike come from different tables or passages of the source.
Experiments:
[1] = Cytotoxic effects, tetrazolium salt (MTT) metabolic assay; type: cell-based; details: read-out: TC50 (the source's name)
Experimental: In conjunction with the appropriate starting materials and intermediates, the procedures of examples 1 to 11 can be used to prepare other compounds of formula 1. Examples of compounds thus prepared are listed in the following Tables I, II and III together with mass spectrum data for the compounds, and results from the assays A and B of example 12. Cytotoxic effects noted as TC50 in the following tables were determined according to the tetrazolium salt (MTT) metabolic assay, F. Denizot and F. Lang, J. Immun. Meth., 1986, 89, 271.

[2] = system: HCMV (strain AD169, ATCC VR-538); assay: Plaque Reduction Assay (PRA); type: cell-based, human cytomegalovirus (HCMV); details: Hs-68 cells, approximately 50 PFU HCMV AD169, 8 days at 37°
Experimental: B. Plaque Reduction Assay (PRA)
Hs-68 cells (ATCC #CRL 1635) were seeded in 12-well plates at 83,000 cells/well in 1 mL of DMEM medium (Gibco Canada Inc.) supplemented with 10% fetal bovine serum (FBS, Gibco Canada Inc.). The plates were incubated for 3 days at 37° to allow the cells to reach 80-90% confluency prior to the assay.
The medium was removed from the cells by aspiration. The cells were then infected with approximately 50 PFU of HCMV (strain AD169, ATCC VR-538) in DMEM medium supplemented with 5% inactivated FBS (assay medium). (DMEM medium is commercially available and has been described by R. Dulbecco et al., Virology 1959, 8, 396.) The virus was allowed to adsorb to cells for 2 h at 37°. Following viral adsorption, the medium was removed from the wells by aspiration. The cells were then incubated with or without 1 mL of appropriate concentrations of test reagent in assay medium. Occasionally, test compounds were added 24 h post-infection. After 4 days of incubation at 37°, the medium was exchanged with fresh medium containing test compound and 4 days later the cells were fixed with 1% aqueous formaldehyde and stained with a 2% violet solution in 20% ethanol in water. Microscopic plaques were counted using a stereomicroscope. Drug effects were calculated as a percent reduction in the number of plaques in the presence of each drug concentration compared to the number observed in the absence of drug. Ganciclovir was used as a positive control in all experiments.

HCMV NO protease = HCMV NO protease (Human cytomegalovirus, UniProt P16753); assay: HCMV NO Protease Assay (inhibition of cleavage of internally quenched fluorogenic peptide substrate); type: biochemical; details: 100 nM HCMV NO protease, 5 μM substrate, 2.5 h at 30°, pH 8
Chain of HCMV NO protease (P16753 1-256): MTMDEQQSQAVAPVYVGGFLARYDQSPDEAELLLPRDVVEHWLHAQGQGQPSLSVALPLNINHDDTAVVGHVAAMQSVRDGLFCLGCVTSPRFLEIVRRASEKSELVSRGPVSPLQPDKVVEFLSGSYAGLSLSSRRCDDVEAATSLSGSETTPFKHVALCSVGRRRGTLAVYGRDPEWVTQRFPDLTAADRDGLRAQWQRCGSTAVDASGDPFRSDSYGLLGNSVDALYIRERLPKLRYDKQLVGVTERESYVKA
Experimental: This particular assay determines the ability of a test compound to inhibit the activity of HCMV protease. More specifically, in the assay described herein, the inhibitory activity of the test compound is evaluated on the basis of its ability to interfere with the HCMV No protease cleavage of a fluorogenic peptide substrate which in turn is based on the maturation cleavage site of the enzyme.
A. HCMV NO Protease Assay
Material & Methods: Fluorescence measurements were recorded on a Perkin-Elmer LS-50B spectrofluorimeter equipped with a plate reader accessory. UV measurements were recorded on a Thermomax® microplate reader from Molecular Devices Corporation, Menlo Park, Calif., USA.
HCMV NO protease was assayed with an internally quenched fluorogenic substrate based on the maturation cleavage site (Abz-[…](3-NO2)R--OH, kcat /KM =260 M^-1 s^-1). The fluorescence increase upon cleavage of the Ala-Ser amide bond was monitored using excitation λ=312 nm (slit 2.5 nm) and emission λ=415 nm (slit 5 nm). A protocol adaptable to a 96-well plate format was designed for the determination of IC50 values of inhibitors. […] After this period, enzymatic hydrolysis of the fluorogenic substrate in the absence of inhibitor led to about a 30% conversion. Quenching was not required before fluorescence measurement since the total scanning time by the plate reader accessory was brief relative to the duration of the reaction. The aqueous incubation buffer contained 50 mM tris(hydroxymethyl)aminomethane.HCl pH 8, 0.5M Na2 SO4, 50 mM NaCl, 0.1 mM EDTA, 1 mM tris(2-carboxyethyl)phosphine.HCl, 3% v/v DMSO and 0.05% w/v casein. The final concentrations of HCMV NO protease (expressed in terms of total monomer concentration) and substrate were 100 nM and 5 μM respectively. IC50 values were obtained through fitting of the inhibition curve to a competitive inhibition model using SAS NLIN procedure. The mode of inhibition was determined by measurements of the initial rates (in cuvettes) at various substrate concentrations in the buffer as described above. The IC50 values listed in the following tables the IC50 were obtained according to this assay.

[3] = Human betaherpesvirus 5, AD169, Hs68, 192 h, read-out: EC50

SMILES | CC50 [1] [µM] | EC50 [2, 3] [µM] | IC50 (HCMV NO protease) [µM] | EC50 ([2]; read-out: EC50) [µM] | EC50 [2] [µM]
CC[C@@H](NC(=O)N1C(=O)C[C@@H]1CCc1ccccc1)c1ccccc1 [Entry 212] | > 250 | 140 | 4.3 |  | 
CN(Cc1ccc(SC(F)(F)F)cc1)C(=O)N1C(=O)C[C@@H]1Cc1ccccc1 [Entry 137] | > 250 | > 250 | 6.9 |  | 
Cc1ccc(NC(=O)N2C(=O)C[C@@H]2Cc2ccccc2)cc1 [Entry 103] | > 250 | > 250 | 5.3 |  | 
CC[C@@H](NC(=O)N1C(=O)C[C@@H]1Cc1nnn(C)n1)c1ccccc1 [Entry 222] | > 148 | 125 | 5 |  | 
CC(C)c1ccc(CN(C)C(=O)N2C(=O)C[C@@H]2Cc2ccccc2)cc1 [Entry 134] | 200 | 150 | 6.4 |  | 
CCC(NC(=O)N1C(=O)[C@@H](C)[C@@H]1Cc1ccccc1)c1ccncc1 (single isomer, unassigned) [Entry 205] | > 250 |  | 21 | > 250 | 
O=C1C[C@H](Cc2ccccc2)N1C(=O)Nc1ccc(F)cc1 [Entry 101] | > 250 | > 250 | 3.7 |  | 
CN(Cc1ccc(S(=O)(=O)C(F)(F)F)cc1)C(=O)N1C(=O)C[C@@H]1Cc1ccccc1 [Entry 139] | > 250 | > 250 | 4.3 |  | 
CN(Cc1ccc(C(F)(F)F)cc1)C(=O)N1C(=O)C[C@@H]1Cc1ccco1 [Entry 221] | > 100 | 59 | 7.1 |  | 
O=C1C[C@H](Cc2ccc(I)cc2)N1C(=O)NCc1ccncc1 [Entry 211] | > 100 | > 100 | 8.6 |  | 
CN(Cc1ccc(C(F)(F)F)cc1)C(=O)N1C(=O)C[C@@H]1Cc1cccs1 [Entry 228] | > 16 | > 16 | 4.5 |  | 
CN(Cc1ccccc1[N+](=O)[O-])C(=O)N1C(=O)C[C@@H]1Cc1ccccc1 [Entry 124] | > 250 | 150 | 6.9 |  | 
O=C1C[C@H](Cc2ccccc2)N1C(=O)NCc1ccccc1 [Entry 116, 4(S)-Benzyl-2-oxoazetidine-1-carboxylic acid benzyl-amide] | > 250 | 53 | 8.9 |  | 
C[C@@H]1C(=O)N(C(=O)N(C)Cc2ccccc2)[C@H]1Cc1ccccc1 [Entry 208] | > 250 | 150 | 4.2 |  | 
O=C1C[C@H](Cc2ccccc2)N1C(=O)NCc1cccnc1 [Entry 142] | > 250 | > 250 | 9.7 |  | 
CN(Cc1ccc(C(F)(F)F)cc1)C(=O)N1C(=O)C[C@@H]1Cc1nccs1 [Entry 231] | > 25 |  | 2.7 |  | 11

SMILES | CC50 [1] [µM] | EC50 [2, 3] [µM] | IC50 (HCMV NO protease) [µM] | EC50 ([2]; read-out: EC50) [µM] | EC50 [2] [µM]
COc1ccc(NC(=O)N2C(=O)C[C@@H]2Cc2ccccc2)cc1 [Entry 102] | > 250 | 215 | 3.9 |  | 
CN(Cc1ccc([N+](=O)[O-])cc1)C(=O)N1C(=O)C[C@@H]1Cc1ccco1 [Entry 229] | > 261 | 143 | 3.1 |  | 
COC(=O)c1ccc(CN(C)C(=O)N2C(=O)C[C@@H]2Cc2ccccc2)cc1 [Entry 131] | > 250 | 140 | 2.5 |  | 
CN(Cc1cccc([N+](=O)[O-])c1)C(=O)N1C(=O)C[C@@H]1Cc1ccccc1 [Entry 133] | > 250 | 170 | 6.9 |  | 
CCCC(NC(=O)N1C(=O)CC1Cc1ccccc1)c1ccccc1 (stereo not drawn) [Entry 121] | > 250 | 160 | 3.4 |  | 
Cc1ccc(CN(C)C(=O)N2C(=O)C[C@@H]2Cc2ccccc2)cc1 [Entry 129] | > 200 | 140 | 8.9 |  | 
CN(Cc1ccc([N+](=O)[O-])cc1)C(=O)N1C(=O)C[C@@H]1Cc1nccs1 [Entry 227] | > 29 | > 29 | 2.5 |  | 
COc1c(C)cc(NC(=O)N2C(=O)C[C@@H]2Cc2ccccc2)cc1C [Entry 106] | > 250 | 190 | 2.4 |  | 
C[C@@H]1C(=O)N(C(=O)Nc2ccccc2)[C@H]1Cc1ccccc1 [Entry 203] | > 250 | > 250 | 0.81 |  | 
CC[C@H]1CC(=O)N1C(=O)N[C@H](CC)c1ccccc1 [Entry 214] | > 250 | 180 | 7.6 |  | 
C[C@@H]1C(=O)N(C(=O)Nc2ccncc2)[C@H]1Cc1ccccc1 [Entry 204] | > 250 | 205 | 0.97 |  | 
O=C1C[C@H](Cc2ccccc2)N1C(=O)NCc1ccncc1 [Entry 136, 4(S)-Benzyl-2-oxoazetidine-1-carboxylic acid (4-pyridinylmethyl) amide] | > 250 | > 250 | 13 |  | 
CN(Cc1ccc(C#N)cc1)C(=O)N1C(=O)C[C@@H]1Cc1ccccc1 [Entry 145] | > 250 | 120 | 6.1 |  | 
CN(Cc1ccc(C(F)(F)F)cc1)C(=O)N1C(=O)C[C@@H]1Cc1nccs1 [Entry 218, 4(R)-(2-Thiazolylmethyl)-2-oxoazetidine-1-carboxylic acid N-methyl-N-{{(4-trifluoromethyl)phenyl}methyl}amide] | 178 |  | 5.5 | 78 | 
CC(=O)Nc1ccc(CN(C)C(=O)N2C(=O)C[C@@H]2Cc2ccccc2)cc1 [Entry 132] | > 250 | 150 | 17 |  | 
C[C@@H](NC(=O)N1C(=O)C[C@@H]1Cc1ccccc1)c1cccc2ccccc12 [Entry 105] | > 18 | > 18 | 7.7 |  | 
